Article PMC11881662 (Journal of Enzyme Inhibition and Medicinal Chemistry, 2025)
Values after ≈ are worked out from the molar mass of the structure shown. Values joined by “and” are separate entries in the source; they are usually repeats but may differ in a detail not shown here. Identical values can stand only once.

Experiments:
MCF-7 cells [1] = assay: Apoptosis induction, Annexin V-FITC/PI flow cytometry; format: cell-based, human; conditions: MCF-7, at IC50, 24 h
poly(dG-dC)2 = assay: Ethidium bromide assay, DNA-binding effects on poly; conditions: EtBr-DNA complex, compound 10 μM, 25 °C 30 min
MCF-7 cells [2] = assay: Wound healing assay; format: cell-based, human; conditions: MCF-7, at IC50 concentrations
calf thymus DNA = assay: Ethidium bromide assay, DNA-binding effects on calf thymus DNA; conditions: EtBr-DNA complex, compound 10 μM, 25 °C 30 min
[3] = system: normal human skin fibroblasts (HSF); assay: Normal cytotoxicity evaluation, MTT; format: cell-based; conditions: Skin fibroblast, 24 h, read-out: Normal HSF IC50
T4 coliphage DNA = assay: Ethidium bromide assay, DNA-binding effects on T4 coliphage DNA; conditions: EtBr-DNA complex, compound 10 μM, 25 °C 30 min
poly(dA-dT)2 = assay: Ethidium bromide assay, DNA-binding effects on poly; conditions: EtBr-DNA complex, compound 10 μM, 25 °C 30 min
plasmid pBR322 [4] = assay: Ethidium bromide assay, DNA-binding effects on plasmid pBR322; conditions: EtBr-DNA complex, compound 10 μM, 25 °C 30 min; no drug = 100% fluorescence
recombinant human DHFR = molecular target: T1, recombinant human DHFR (Homo sapiens, UniProt P00374); assay: Dihydrofolate reductase; format: biochemical
T1 sequence (P00374 1-187): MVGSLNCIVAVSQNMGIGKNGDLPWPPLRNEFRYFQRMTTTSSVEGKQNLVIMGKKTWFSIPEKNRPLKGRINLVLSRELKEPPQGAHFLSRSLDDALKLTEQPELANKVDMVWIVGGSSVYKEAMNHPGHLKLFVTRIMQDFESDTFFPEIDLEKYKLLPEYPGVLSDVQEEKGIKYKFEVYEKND

[5] = system: MCF-7 breast cancer cell line; assay: In vitro anti-proliferative MTT assay; format: cell-based, human; conditions: for IC50: Homo sapiens, MCF7, 24 h, read-out: MCF-7 IC50; for Selectivity index (SI): IC50 against normal cells (HSF) divided by IC50 against cancer cells (MCF-7)
plasmid pBR322 [6] = conditions: NT under the same conditions; cited from earlier work

| SMILES | Percentage of necrosis (MCF-7 cells [1]) | Percentage of total apoptosis (MCF-7 cells [1]) | Decrease in fluorescence (%) Poly (dG-dC)2 (poly(dG-dC)2) | % Wound closure after 24 h treatment (MCF-7 cells [2]) | Decrease in fluorescence (%) Calf Thymus DNA (calf thymus DNA) | IC50 [3] | Decrease in fluorescence (%) T4 DNA (T4 coliphage DNA) | Decrease in fluorescence (%) Poly (dA-dT)2 (poly(dA-dT)2) | Decrease in fluorescence (%) pBr322 (plasmid pBR322 [4]) | IC50 (recombinant human DHFR) | IC50 [5] | Selectivity index (SI) [5] | Decrease in fluorescence (%) pBr322 (degree of EtBr displacement) (plasmid pBR322 [6]) |
| --- | --- | --- | --- | --- | --- | --- | --- | --- | --- | --- | --- | --- | --- |
| O=C(O)C(/C=C/c1ccc(Cl)cc1)=N\Nc1nc(-c2ccccc2)cs1 [Compound 5, (2Z,3E)-4-(4-Chlorophenyl)-2-(2–(4-phenylthiazol-2-yl)hydrazinylidene)but-3-enoic acid] | 3.09% | 29.63% | 67.28% | 45.19% | 63.15% | 32.6 µg/mL (≈ 84.8 µM) | 28.05% | 56.91% | 63.44% | 0.08 ± 0.001 µM | 2.72 µg/mL (≈ 7.09 µM) | 11.97 |  |
| O=C(O)C(/C=C/c1ccc(Cl)cc1)=N\Nc1nc(-c2ccc([N+](=O)[O-])cc2)cs1 [Compound 11, (2Z,3E)-4-(4-Chlorophenyl)-2-(2-(4-(4-nitrophenyl)thiazol-2-yl)hydrazinylidene)but-3-enoic acid] | 4.81% | 23.99% | 56.57% | 52.72% | 46.31% | 84.4 µg/mL (≈ 197 µM) | 28.89% | 53.39% | 56.21% | 0.06 ± 0.03 µM | 12.5 µg/mL (≈ 29.2 µM) | 6.74 |  |
| COc1ccc(-c2csc(N/N=C(/C=C/c3c(Cl)cccc3Cl)C(=O)O)n2)cc1 [Compound 14, (2Z,3E)-4-(2,6-dichlorophenyl)-2-(2-(4-(4-methoxyphenyl)thiazol-2-yl)hydrazinylidene)but-3-enoic acid] |  |  | 61.25% |  | 58.95% |  | 40.85% | 67.21% | 51.61% | 31.02 ± 0.04 µM |  |  |  |
| O=C(O)C(/C=C/c1c(Cl)cccc1Cl)=N\Nc1nc(-c2ccc(F)cc2)cs1 [Compound 15, (2Z,3E)-4-(2,6-dichlorophenyl)-2-(2-(4-(4-fluorophenyl)thiazol-2-yl)hydrazinylidene)but-3-enoic acid] |  |  | 57.81% |  | 72.10% |  | 39.02% | 55.27% | 70.97% | 62.31 ± 0.02 µM |  |  |  |
| O=C(O)C(/C=C/c1c(Cl)cccc1Cl)=N\Nc1nc(-c2ccc(Cl)cc2)cs1 [Compound 16, (2Z,3E)-4-(2,6-dichlorophenyl)-2-(2-(4-(4-chlorophenyl)thiazol-2-yl)hydrazinylidene)but-3-enoic acid] |  |  | 63.12% |  | 50.53% |  | 52.44% | 51.29% | 64.16% | 53.18 ± 0.01 µM |  |  |  |
| O=C(O)C(/C=C/c1c(Cl)cccc1Cl)=N\Nc1nc(-c2ccc(Br)cc2)cs1 [Compound 17, (2Z,3E)-4-(2,6-dichlorophenyl)-2-(2-(4-(4-bromophenyl)thiazol-2-yl)hydrazinylidene)but-3-enoic acid] |  |  | 63.44% |  | 54.21% |  | 35.36% | 42.62% | 61.65% | 60.28 ± 0.02 µM |  |  |  |
| O=C(O)C(/C=C/c1c(Cl)cccc1Cl)=N\Nc1nc(-c2ccc([N+](=O)[O-])cc2)cs1 [Compound 18, (2Z,3E)-4-(2,6-dichlorophenyl)-2-(2-(4-(4-nitrophenyl)thiazol-2-yl)hydrazinylidene)but-3-enoic acid] |  |  | 62.50% |  | 76.84% |  | 45.12% | 37.00% | 55.56% | 63.18 ± 0.01 µM |  |  |  |
| CN(Cc1cnc2nc(N)nc(N)c2n1)c1ccc(C(=O)N[C@@H](CCC(=O)O)C(=O)O)cc1 [MTX, Methotrexate, reference compound] | 6.50% |  |  | 45.46% |  | 126 µg/mL (≈ 276 µM) |  |  | 100% |  | 56.9 µg/mL (≈ 125 µM) |  |  |
| Cn1cc(NC(=O)c2cc(NC(=O)CN=C(N)N)cn2C)cc1C(=O)NCCC(=N)N [NT, netropsin, reference compound] |  |  | 85% and 85.13% |  | 90.24% |  | 70.06% | 62.02% |  |  |  |  | 74% |
